In assay [1] the test system is primary neuronal cultures and hippocampal slices. The settings on record: cited from earlier work.
The conditions of assay [2]: in vivo; cited from earlier work.
For assay [3] the following is noted: tryptophan depletion; cited from earlier work.
The next assay relates to rat hippocampal slices. The settings on record: cited from earlier work.
The conditions of assay [4]: aged rats; cited from earlier work.
The conditions of assay [5]: cited from earlier work.
For assay [6] the following is noted: mice, BSO glutathione depletion; cited from earlier work.
The conditions of assay [7]: rats, subchronic phencyclidine; cited from earlier work.
The conditions of assay [8]: rats; cited from earlier work.
Another assay concerns the target human PDE10A (Homo sapiens (Human), UniProt Q9Y233). Kind of assay: PDE10A inhibition assay. The class given is biochemical. The settings on record: for PDE10 % inhibition: @ 10,000 nM. On the procedure: Active PDE10A enzyme is prepared in a number of ways for use in PDE assays (Loughney, K. et al. Gene 1999, 234, 109-117; Fujishige, K. et al. Eur J. Biochem. 1999, 266, 1118-1127 and Soderling, S. et al. Proc. Natl. Acad. Sci. 1999, 96, 7071-7076). PDE10A can be expressed as full-length proteins or as truncated proteins, as long as they express the catalytic domain. PDE10A can be prepared in different cell types, for example insect cells or E. coli. An example of a method to obtain catalytically active PDE10A is as follows: The catalytic domain of human PDE10A (amino acids 440-779 from the sequence with accession number NP 006652) is amplified from total human brain total RNA by standard RT-PCR and is cloned into the BamH1 and XhoI sites of the pET28a vector (Novagen). Expression in coli is performed according to standard protocols. Briefly, the expression plasmids are transformed into the BL21(DE3) E. coli strain, and 50 mL cultures inoculated with the cells allowed to grow to an OD600 of 0.4-0.6 before protein expression is induced with 0.5 mM IPTG. Following induction, the cells are incubated overnight at room temperature, after which the cells are collected by centrifugation. Cells expressing PDE10A are resuspended in 12 mL (50 mM TRIS-HCl-pH8.0, 1 mM MgCl2 and protease inhibitors). The cells are lysed by sonication, and after all cells are lysed, TritonX100 is added according to Novagen protocols.
A typical PDE10A assay was performed as follows: the assay was performed in 60 μL samples containing a fixed amount of the […] enzyme (sufficient to convert 20-25% of the cyclic nucleotide substrate), a buffer (50 mM HEPES pH 7.6; 10 mM MgCl2; 0.02% Tween20), 10 nM tritium labelled cAMP and varying amounts of inhibitors. […] The beads were allowed to settle for 1 h in the dark before the plates were counted in a Wallac 1450 Microbeta counter. The measured signals were converted to activity relative to an uninhibited control (100%) and IC50 values were calculated using XlFit (model 205, IDBS).

The conditions of assay [9]: cited from earlier work. This is another data set of the same source.
The next assay concerns the target human PDE2A enzyme (Homo sapiens (Human), UniProt O00408). Kind of assay: PDE2A inhibition assay. The assay is classed as biochemical. The following applies: 15 nM tritium labelled cAMP, SPA. On the procedure:
Likewise, active human PDE2A enzyme (ATCC68585) is prepared in a number of ways for use in PDE assays and procedures are well known to those skilled in the art.
A typical PDE2A assay was performed as follows: the assay was performed in 60 μL samples containing a fixed amount of the […] enzyme (sufficient to convert 20-25% of the cyclic nucleotide substrate), a buffer (50 mM HEPES pH 7.6; 10 mM MgCl2; 0.02% Tween20), 0.1 mg/ml BSA, 15 nM tritium labelled cAMP and varying amounts of inhibitors. Reactions were initiated by addition of the cyclic nucleotide substrate, and reactions were allowed to proceed for 1 h at room temperature before being terminated through mixing with 20 μL (0.2 mg) yttrium silicate SPA beads (Amersham). The beads were allowed to settle for 1 h in the dark before the plates were counted in a Wallac 1450 Microbeta counter. The measured signals were converted to activity relative to an uninhibited control (100%) and IC50 values were calculated using XlFit (model 205, IDBS).

human PDE10A, sequence (Q9Y233 716-1055): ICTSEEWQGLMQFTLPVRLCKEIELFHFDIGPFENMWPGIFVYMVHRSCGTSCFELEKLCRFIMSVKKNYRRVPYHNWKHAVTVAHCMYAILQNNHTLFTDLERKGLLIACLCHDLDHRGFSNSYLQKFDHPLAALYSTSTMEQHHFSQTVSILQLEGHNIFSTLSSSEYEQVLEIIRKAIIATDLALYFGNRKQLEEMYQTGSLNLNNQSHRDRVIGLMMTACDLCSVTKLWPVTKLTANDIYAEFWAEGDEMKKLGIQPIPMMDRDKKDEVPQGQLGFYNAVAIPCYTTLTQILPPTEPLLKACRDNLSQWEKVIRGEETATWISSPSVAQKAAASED
human PDE2A enzyme, sequence (O00408 whole entry): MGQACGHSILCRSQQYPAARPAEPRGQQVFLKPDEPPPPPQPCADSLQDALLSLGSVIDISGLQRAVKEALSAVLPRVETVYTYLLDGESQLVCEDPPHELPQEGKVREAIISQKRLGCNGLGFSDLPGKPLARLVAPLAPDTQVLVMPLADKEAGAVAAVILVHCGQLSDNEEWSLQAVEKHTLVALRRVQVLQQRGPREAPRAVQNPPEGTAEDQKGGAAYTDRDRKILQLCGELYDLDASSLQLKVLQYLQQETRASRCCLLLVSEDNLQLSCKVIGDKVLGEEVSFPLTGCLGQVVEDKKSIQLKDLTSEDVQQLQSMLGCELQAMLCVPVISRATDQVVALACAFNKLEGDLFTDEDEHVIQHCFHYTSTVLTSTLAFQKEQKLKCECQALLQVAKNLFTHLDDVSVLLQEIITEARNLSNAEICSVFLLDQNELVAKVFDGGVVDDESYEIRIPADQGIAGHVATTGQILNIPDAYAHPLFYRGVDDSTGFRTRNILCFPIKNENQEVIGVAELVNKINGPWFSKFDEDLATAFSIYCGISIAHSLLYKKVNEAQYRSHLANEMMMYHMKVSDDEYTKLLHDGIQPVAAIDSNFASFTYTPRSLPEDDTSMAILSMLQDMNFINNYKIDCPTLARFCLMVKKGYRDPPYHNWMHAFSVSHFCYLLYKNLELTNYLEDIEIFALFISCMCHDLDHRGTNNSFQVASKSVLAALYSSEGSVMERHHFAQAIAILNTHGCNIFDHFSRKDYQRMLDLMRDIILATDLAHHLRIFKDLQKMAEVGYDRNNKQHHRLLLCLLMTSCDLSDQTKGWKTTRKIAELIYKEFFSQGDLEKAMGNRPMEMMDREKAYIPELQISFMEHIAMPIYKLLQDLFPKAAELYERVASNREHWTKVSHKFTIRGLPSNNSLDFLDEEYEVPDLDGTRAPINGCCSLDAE

As for `COc1ccc(Cc2nn3c([C@@H](CCCc4ccccc4)[C@@H](C)O)nc(C)c3c(=O)[nH]2)cc1OC` [Bay 60-7550], in [1], the cGMP entry is “preferentially increases cGMP”. Also, in assay [2], the “activity in novel object and social recognition tasks” value is “active”. Also, in assay [3], the “deficit in object recognition” value is on record as “reverse the deficit in object recognition”. Also, in the assay on rat hippocampal slices, the “long term potentiation (LTP) induction” value is on record as “increases long term potentiation (LTP) induction”. Also, the object recognition result in [4] was “beneficial effect”. In [5], the “anxiogenic effects of restraint stress on behaviour” value (“anxiogenic effects” for short) is “antagonized the anxiogenic effects”. Moreover, the anxiety-like behaviours entry in assay [6] is reported as “reversed”.

As to `NCCN(CCN)/[N+]([O-])=N/O` [detanonoate], the “anxiogenic effects” value in [5] is given as “antagonized the anxiogenic effects”.

Regarding `COc1ccc(Cc2nccc3cc(OC)c(OC)cc23)cc1OC` [papaverine], the attentional set-shifting deficits result in [7] is “reverses attentional set-shifting deficits”. In addition, in assay [8], the apomorphine-induced stereotypies result was “reduces apomorphine-induced stereotypies”, the “dopamine concentration in rat brain” value is listed as “reducing dopamine concentration” and the haloperidol-induced catalepsy entry was “increases haloperidol-induced catalepsy”.

For `Cc1nc2ccncc2n2c(-c3ccccc3Cl)nnc12` [Example Ic1, 1-(2-Chloro-phenyl)-4-methyl-2,3,5,8,9b-pentaaza-cyclopenta[a]naphthalene], at human PDE10A (10 nM tritium labelled cAMP, SPA, read-out: PDE10 IC50), the IC50 is 1760 nM.

Consider `O=C(CCCN1CCC(O)(c2ccc(Cl)cc2)CC1)c1ccc(F)cc1` [haloperidol], for which the cGMP levels entry in assay [9] (patients) is on record as “increased”. In assay [9] (rats), the cAMP levels result is on record as “increased”.

Compound `Cc1nc2cnccc2n2c(-c3ccccc3Cl)nnc12` [Example Ib1, 1-(2-Chloro-phenyl)-4-methyl-2,3,5,7,9b-pentaaza-cyclopenta[a]naphthalene] yielded a 50% inhibitory concentration (IC50) at human PDE2A enzyme of 471 nM. This compound also yielded a PDE10 % inhibition on human PDE10A of 68% inhibition.

On to `COc1cc2c(cc1-c1ccccc1)C(c1cccc(C(N)=O)c1)=NCC(=O)N2C` [ND7001], for which the “anxiogenic effects” value in assay [5] was “antagonized the anxiogenic effects”.

On to `Cc1cccc(Cl)c1-c1nnc2c(C)nc3ncccc3n12` [Example Ia2, 1-(2-Chloro-6-methyl-phenyl)-4-methyl-2,3,5,6,9b-pentaaza-cyclopenta[a]naphthalene], for which, on human PDE2A enzyme, it took 504 nM to reach half-maximal inhibition (IC50). Moreover, the PDE10 % inhibition at human PDE10A is 48% inhibition.

The IC50 is the concentration at which inhibition is half-maximal.

Source of the values: patent US9056863B2, “Substituted 2,3,5,9,9B-pentaazacyclopenta[a]naphthalenes and uses thereof” (H. Lundbeck A/S, priority 2011, dated 2015).
